# Source: the NIST ThermoML archive (doi:10.1021/je2001446)
# “And” between values parts separate entries of the source, which are not always exact repeats. Identical values can stand only once. ± gives the expanded uncertainty stated by the source.
# Assays:
# [1] = Molar enthalpy of transition or fusion; conditions: Crystal
# [2] = Crystal
SMILES,Molar enthalpy of transition or fusion [1] [kcal/mol],Normal melting temperature [2]
CCCC[n+]1cccc(C)c1.[Cl-] [1-butyl-3-methylpyridinium chloride],6.57 ± 0.765,111.4 ± 0.8 °C and 109.8 ± 2.5 °C
CCCCCCCCCC[n+]1cccc(C)c1.[Cl-] [1-decyl-3-methylpyridinium chloride],3.44 ± 0.741,79.4 ± 0.8 °C and 75.6 ± 2.5 °C
CCCCCCCCCCCC[n+]1cccc(C)c1.[Cl-] [1-dodecyl-3-methylpyridinium chloride],8.87 ± 0.789,87.7 ± 0.8 °C and 86.8 ± 2.5 °C
CCCCCCCCCCCCCCCC[n+]1cccc(C)c1.[Cl-] [1-hexadecyl-3-methylpyridinium chloride],9.63 ± 0.813,110 ± 0.8 °C and 110.0 ± 2.5 °C
CCCCCC[n+]1cccc(C)c1.[Cl-] [1-hexyl-3-methylpyridinium chloride],4.71 ± 0.741,82.0 ± 0.8 °C and 80 ± 2.5 °C
CCCCCCCC[n+]1cccc(C)c1.[Cl-] [1-octyl-3-methylpyridinium chloride],3.56 ± 0.741,80.1 ± 0.8 °C and 79.2 ± 2.5 °C
CCCCCCCCCCCCCC[n+]1cccc(C)c1.[Cl-] [1-tetradecyl-3-methylpyridinium chloride],10.2 ± 0.813,93.7 ± 0.8 °C and 94.6 ± 2.5 °C
CCCCCCCCCCCCCCCCCC[n+]1cccc(C)c1.[Cl-] [3-methyl-1-octadecylpyridinium chloride],6.72 ± 0.765,112.2 ± 0.8 °C and 113 ± 2.5 °C
